Results published in patent US8779129B2, “Triazinedione derivatives as GABAB receptor modulators” (Addex Pharma S.A., priority 2006, dated 2014).

| Compound | melting point [°C] |
| --- | --- |
| CC(=O)Nc1cccc(-n2nc(CN(C)C)c(=O)n(Cc3ccc(Cl)cc3)c2=O)c1.Cl | 143 |
| CC(=O)Nc1cccc(-n2nc(C#N)c(=O)n(Cc3ccc(Cl)cc3)c2=O)c1 [1.01, N-(3-(4-(4-chlorobenzyl)-6-cyano-3,5-dioxo-4,5-dihydro-1,2,4-triazin-2(3H)-yl)phenyl)acetamide] | 196 |
| CC(=O)Nc1cccc(-n2ncc(=O)n(Cc3ccc(Cl)cc3)c2=O)c1 [2.01, N-(3-(4-(4-chlorobenzyl)-3,5-dioxo-4,5-dihydro-1,2,4-triazin-2(3H)-yl)phenyl)acetamide] | 171 to 172 |
| CC(=O)Nc1cccc(-n2ncc(=O)n(Cc3ccc(C#N)cc3)c2=O)c1 [2.05, N-(3-(4-(4-cyanobenzyl)-3,5-dioxo-4,5-dihydro-1,2,4-triazin-2(3H)-yl)phenyl)acetamide] | 184 to 185 |
| CC(=O)Nc1cccc(-n2ncc(=O)n(Cc3ccc(Cl)cc3F)c2=O)c1 [2.20, N-(3-(4-(4-chloro-2-fluorobenzyl)-3,5-dioxo-4,5-dihydro-1,2,4-triazin-2(3H)-yl)phenyl)acetamide] | 184 |
| CC(=O)Nc1cccc(-n2nc(C)c(=O)n(Cc3ccc(Cl)cc3)c2=O)c1 [3.01, N-(3-(4-(4-chlorobenzyl)-6-methyl-3,5-dioxo-4,5-dihydro-1,2,4-triazin-2(3H)-yl)phenyl)acetamide] | 168 |
| COc1nn(-c2cccc(NC(C)=O)c2)c(=O)n(Cc2ccc(Cl)cc2)c1=O [4.01, N-(3-(4-(4-chlorobenzyl)-6-methoxy-3,5-dioxo-4,5-dihydro-1,2,4-triazin-2(3H)-yl)phenyl)acetamide] | 190 to 191 |
| COc1nn(-c2cccc(NC(C)=O)c2)c(=O)n(Cc2ccc3c(c2)OC(F)(F)O3)c1=O [4.127, N-(3-(4-((2,2-difluorobenzo[d][1,3]dioxol-5-yl)methyl)-6-methoxy-3,5-dioxo-4,5-dihydro-1,2,4-triazin-2(3H)-yl)phenyl)acetamide] | 184 |
| COc1nn(-c2cccc(N(C)C(C)=O)c2)c(=O)n(Cc2ccc(Cl)cc2)c1=O [4.133, N-(3-(4-(4-chlorobenzyl)-6-methoxy-3,5-dioxo-4,5-dihydro-1,2,4-triazin-2(3H)-yl)phenyl)-N-methylacetamide] | 157 |
| COCC(=O)Nc1cccc(-n2nc(OC)c(=O)n(Cc3ccc(Cl)cc3)c2=O)c1 [4.141, N-(3-(4-(4-chlorobenzyl)-6-methoxy-3,5-dioxo-4,5-dihydro-1,2,4-triazin-2(3H)-yl)phenyl)-2-methoxyacetamide] | 143 |
| COc1nn(-c2ccccc2O)c(=O)n(Cc2ccc(Cl)cc2)c1=O [4.143, 4-(4-chlorobenzyl)-2-(2-hydroxyphenyl)-6-methoxy-1,2,4-triazine-3,5(2H,4H)-dione] | 164 to 165 |
| COc1nn(-c2cccc(Nc3nccs3)c2)c(=O)n(Cc2ccc(Cl)cc2)c1=O [4.144, 4-(4-chlorobenzyl)-6-methoxy-2-(3-(thiazol-2-ylamino)phenyl)-1,2,4-triazine-3,5(2H,4H)-dione] | 176 to 178 |
| COc1nn(-c2cccc(N3CCCC3=O)c2)c(=O)n(Cc2ccc(Cl)cc2)c1=O [4.145, 4-(4-chlorobenzyl)-6-methoxy-2-(3-(2-oxopyrrolidin-1-yl)phenyl)-1,2,4-triazine-3,5(2H,4H)-dione] | 91 to 93 |
| COc1nn(-c2cccc(-c3noc(C)n3)c2)c(=O)n(Cc2ccc(Cl)cc2)c1=O [4.146, 4-(4-chlorobenzyl)-6-methoxy-2-(3-(5-methyl-1,2,4-oxadiazol-3-yl)phenyl)-1,2,4-triazine-3,5(2H,4H)-dione] | 163 to 165 |
| CC(=O)Nc1cccc(-n2nc(C(C)C)c(=O)n(Cc3ccc(Cl)cc3)c2=O)c1 [5.01, N-(3-(4-(4-chlorobenzyl)-6-isopropyl-3,5-dioxo-4,5-dihydro-1,2,4-triazin-2(3H)-yl)phenyl)acetamide] | 178 |
| CC(=O)Nc1cccc(-n2nc(N(C)C)c(=O)n(Cc3ccc(Cl)cc3)c2=O)c1 [5.13, N-(3-(4-(4-chlorobenzyl)-6-(dimethylamino)-3,5-dioxo-4,5-dihydro-1,2,4-triazin-2(3H)-yl)phenyl)acetamide] | 189 to 190 |
| COCc1nn(-c2cccc(NC(C)=O)c2)c(=O)n(Cc2ccc(Cl)cc2)c1=O [5.16, N-(3-(4-(4-chlorobenzyl)-6-(methoxymethyl)-3,5-dioxo-4,5-dihydro-1,2,4-triazin-2(3H)-yl)phenyl)acetamide] | 97 |
| COC(=O)c1nn(-c2cccc(NC(C)=O)c2)c(=O)n(Cc2ccc(Cl)cc2)c1=O [5.17, Methyl 4-(4-chlorobenzyl)-2-(3-acetamidophenyl)-3,5-dioxo-2,3,4,5-tetrahydro-1,2,4-triazine-6-carboxylate] | 193 |
| CC(=O)Nc1cccc(-n2nc(C(=O)OC(C)C)c(=O)n(Cc3ccc(Cl)cc3)c2=O)c1 [5.18, Isopropyl 2-(3-acetamidophenyl)-4-(4-chlorobenzyl)-3,5-dioxo-2,3,4,5-tetrahydro-1,2,4-triazine-6-carboxylate] | 183 |
